According to publication PMC9719519, “Non-classical ferroptosis inhibition by a small molecule targeting PHB2” (Nature Communications, 2022):

Key:
Assay in all cases: biochemical
Set-up in all cases: Eurofins recombinant human kinase profiling, remaining kinase activity as % of control, 10 uM ATP
Settings in all cases: ATP 10 uM; read-out: %Ctrl@10 μM
PRKG2(h) = PRKG2(h) (Homo sapiens, UniProt Q13237)
Outline: (§1)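 Recombinant human kinases, 401 in total, screened using an outsourced kinase profiling assay.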

Abl(h) = target: T1, Abl(h) (Homo sapiens, UniProt P00519)
T1 construct: gene ABL1
Outline: as §1

JNK2α2(h) = target: T2, JNK2α2(h) (Homo sapiens, UniProt P45984)
T2 construct: gene MAPK9; isoform alpha2
Outline: as §1

ROCK-I(h) = target: T3, ROCK-I(h) (Homo sapiens, UniProt Q13464)
T3 construct: gene ROCK1
Outline: as §1

GSK3α(h) = target: T4, GSK3α(h) (Homo sapiens, UniProt P49840)
T4 construct: gene GSK3A
Outline: as §1

ATM(h) = ATM(h) (Homo sapiens, UniProt Q13315)
Outline: as §1

Fyn(h) = Fyn(h) (Homo sapiens, UniProt P06241)
Outline: as §1

EphB4(h) = EphB4(h) (Homo sapiens, UniProt P54760)
Outline: as §1

p70S6K(h) = target: T5, p70S6K(h) (Homo sapiens, UniProt P23443)
T5 construct: gene RPS6KB1
Outline: as §1

Itk(h) = Itk(h) (Homo sapiens, UniProt Q08881)
Outline: as §1

BrSK2(h) = BrSK2(h) (Homo sapiens, UniProt Q8IWQ3)
Outline: as §1

EGFR(L861Q)(h) = EGFR(L861Q)(h) (Homo sapiens, UniProt P00533, L861Q)
Outline: as §1

CaMKIIγ(h) = target: T6, CaMKIIγ(h) (Homo sapiens, UniProt Q13555)
T6 construct: gene CAMK2G
Outline: as §1

Src(1-530)(h) = target: T7, Src(1-530)(h) (Homo sapiens, UniProt P12931)
T7 construct: residues 1-530
Outline: as §1

Yes(h) = target: T8, Yes(h) (Homo sapiens, UniProt P07947)
T8 construct: gene YES1
Outline: as §1

CK1γ3(h) = target: T9, CK1γ3(h) (Homo sapiens, UniProt Q9Y6M4)
T9 construct: gene CSNK1G3
Outline: as §1

MYO3B(h) = MYO3B(h) (Homo sapiens, UniProt Q8WXR4)
Outline: as §1

Flt1(h) = Flt1(h) (Homo sapiens, UniProt P17948)
Outline: as §1

VRK1(h) = VRK1(h) (Homo sapiens, UniProt Q99986)
Outline: as §1

mTOR(h) = mTOR(h) (Homo sapiens, UniProt P42345)
Outline: as §1

[1] = target: T10, PI3 Kinase (p110(E542K)/p85)(h) (Homo sapiens, UniProt P42336, E542K)
T10 construct: gene PIK3CA
Outline: as §1

TLK2(h) = TLK2(h) (Homo sapiens, UniProt Q86UE8)
Outline: as §1

SLK(h) = SLK(h) (Homo sapiens, UniProt Q9H2G2)
Outline: as §1

Chain of EGFR(L861Q)(h) (P00533 whole entry L861Q): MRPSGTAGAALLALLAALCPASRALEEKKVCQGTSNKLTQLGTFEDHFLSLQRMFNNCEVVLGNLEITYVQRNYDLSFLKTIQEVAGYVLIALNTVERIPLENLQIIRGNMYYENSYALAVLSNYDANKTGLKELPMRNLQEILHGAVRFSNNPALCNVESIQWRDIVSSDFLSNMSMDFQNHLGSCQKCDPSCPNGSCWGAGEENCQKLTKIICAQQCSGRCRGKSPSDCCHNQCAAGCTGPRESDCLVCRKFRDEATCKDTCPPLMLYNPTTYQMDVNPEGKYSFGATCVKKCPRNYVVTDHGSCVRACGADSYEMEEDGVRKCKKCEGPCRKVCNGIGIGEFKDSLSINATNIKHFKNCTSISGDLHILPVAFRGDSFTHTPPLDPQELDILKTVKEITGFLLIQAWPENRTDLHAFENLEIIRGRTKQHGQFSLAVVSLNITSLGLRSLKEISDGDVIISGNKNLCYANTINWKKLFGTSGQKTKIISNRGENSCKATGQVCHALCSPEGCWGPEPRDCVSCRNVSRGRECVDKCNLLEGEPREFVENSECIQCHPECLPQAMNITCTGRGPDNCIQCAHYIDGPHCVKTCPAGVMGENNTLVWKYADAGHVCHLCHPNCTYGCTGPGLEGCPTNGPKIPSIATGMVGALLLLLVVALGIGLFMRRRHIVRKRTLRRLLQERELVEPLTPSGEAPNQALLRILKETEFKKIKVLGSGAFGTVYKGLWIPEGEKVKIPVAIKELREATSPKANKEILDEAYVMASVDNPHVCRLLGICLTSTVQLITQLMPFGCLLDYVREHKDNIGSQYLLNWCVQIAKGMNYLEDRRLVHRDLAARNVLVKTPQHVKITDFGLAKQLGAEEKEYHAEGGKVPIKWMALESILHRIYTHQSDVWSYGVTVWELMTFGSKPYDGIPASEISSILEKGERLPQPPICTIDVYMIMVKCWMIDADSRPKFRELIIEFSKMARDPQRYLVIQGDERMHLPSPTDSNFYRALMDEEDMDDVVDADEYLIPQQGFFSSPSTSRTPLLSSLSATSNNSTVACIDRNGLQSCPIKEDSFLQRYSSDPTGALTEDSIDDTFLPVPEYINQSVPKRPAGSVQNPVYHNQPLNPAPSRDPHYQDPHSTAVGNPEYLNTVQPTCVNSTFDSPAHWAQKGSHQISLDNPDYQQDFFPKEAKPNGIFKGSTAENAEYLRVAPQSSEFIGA
Chain of BrSK2(h) (Q8IWQ3 whole entry): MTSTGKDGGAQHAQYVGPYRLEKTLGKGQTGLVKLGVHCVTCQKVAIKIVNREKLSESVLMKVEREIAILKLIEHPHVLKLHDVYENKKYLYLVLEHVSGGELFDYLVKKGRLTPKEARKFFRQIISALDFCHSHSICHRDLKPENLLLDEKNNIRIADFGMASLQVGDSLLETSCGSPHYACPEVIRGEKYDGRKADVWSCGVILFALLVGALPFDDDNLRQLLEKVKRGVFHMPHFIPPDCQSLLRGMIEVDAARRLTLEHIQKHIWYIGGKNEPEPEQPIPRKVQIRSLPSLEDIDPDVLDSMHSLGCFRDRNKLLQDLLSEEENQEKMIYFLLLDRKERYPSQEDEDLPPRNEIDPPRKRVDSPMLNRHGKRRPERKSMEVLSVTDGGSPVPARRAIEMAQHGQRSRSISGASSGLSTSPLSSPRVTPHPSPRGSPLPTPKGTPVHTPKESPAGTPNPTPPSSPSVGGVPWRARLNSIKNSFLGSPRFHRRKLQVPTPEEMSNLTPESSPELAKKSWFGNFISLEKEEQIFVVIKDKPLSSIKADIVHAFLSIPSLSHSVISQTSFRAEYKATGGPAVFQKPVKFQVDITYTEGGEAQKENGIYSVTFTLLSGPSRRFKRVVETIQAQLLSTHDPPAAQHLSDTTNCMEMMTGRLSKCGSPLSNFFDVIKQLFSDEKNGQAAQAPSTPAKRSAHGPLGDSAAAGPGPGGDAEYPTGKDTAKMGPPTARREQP
T3 sequence (Q13464 whole entry): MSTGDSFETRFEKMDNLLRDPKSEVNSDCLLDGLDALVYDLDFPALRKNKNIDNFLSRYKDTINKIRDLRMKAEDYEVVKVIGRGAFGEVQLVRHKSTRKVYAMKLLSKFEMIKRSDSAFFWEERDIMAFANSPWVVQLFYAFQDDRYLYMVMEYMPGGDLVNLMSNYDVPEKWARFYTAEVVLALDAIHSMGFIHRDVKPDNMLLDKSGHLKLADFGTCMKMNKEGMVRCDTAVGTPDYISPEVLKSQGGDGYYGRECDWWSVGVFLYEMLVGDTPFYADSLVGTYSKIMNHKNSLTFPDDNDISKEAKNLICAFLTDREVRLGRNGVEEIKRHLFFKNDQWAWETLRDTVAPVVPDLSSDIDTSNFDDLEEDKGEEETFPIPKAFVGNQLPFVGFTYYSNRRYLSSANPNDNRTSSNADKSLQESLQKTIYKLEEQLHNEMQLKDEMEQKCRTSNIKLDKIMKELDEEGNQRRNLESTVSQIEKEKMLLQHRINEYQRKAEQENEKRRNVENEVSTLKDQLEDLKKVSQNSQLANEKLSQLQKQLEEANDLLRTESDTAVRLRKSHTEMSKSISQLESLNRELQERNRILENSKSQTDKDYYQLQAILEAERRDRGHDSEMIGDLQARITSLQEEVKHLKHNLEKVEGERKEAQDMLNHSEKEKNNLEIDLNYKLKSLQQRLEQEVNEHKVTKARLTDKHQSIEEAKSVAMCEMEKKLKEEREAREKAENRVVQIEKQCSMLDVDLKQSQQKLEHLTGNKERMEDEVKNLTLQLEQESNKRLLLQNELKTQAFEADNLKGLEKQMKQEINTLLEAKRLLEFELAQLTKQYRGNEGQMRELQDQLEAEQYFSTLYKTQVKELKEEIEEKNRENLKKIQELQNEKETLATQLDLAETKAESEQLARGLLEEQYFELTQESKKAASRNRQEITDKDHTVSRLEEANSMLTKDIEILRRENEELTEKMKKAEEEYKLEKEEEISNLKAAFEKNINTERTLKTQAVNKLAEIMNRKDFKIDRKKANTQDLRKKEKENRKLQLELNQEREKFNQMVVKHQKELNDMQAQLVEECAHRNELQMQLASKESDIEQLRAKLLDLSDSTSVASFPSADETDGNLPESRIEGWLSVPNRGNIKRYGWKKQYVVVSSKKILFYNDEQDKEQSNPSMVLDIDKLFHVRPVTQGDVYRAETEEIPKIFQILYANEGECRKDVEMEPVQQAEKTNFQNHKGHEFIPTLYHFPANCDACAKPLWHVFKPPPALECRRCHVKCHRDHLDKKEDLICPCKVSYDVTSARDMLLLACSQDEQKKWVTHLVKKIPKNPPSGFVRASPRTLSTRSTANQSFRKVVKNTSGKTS
T2 sequence (P45984 whole entry, canonical isoform): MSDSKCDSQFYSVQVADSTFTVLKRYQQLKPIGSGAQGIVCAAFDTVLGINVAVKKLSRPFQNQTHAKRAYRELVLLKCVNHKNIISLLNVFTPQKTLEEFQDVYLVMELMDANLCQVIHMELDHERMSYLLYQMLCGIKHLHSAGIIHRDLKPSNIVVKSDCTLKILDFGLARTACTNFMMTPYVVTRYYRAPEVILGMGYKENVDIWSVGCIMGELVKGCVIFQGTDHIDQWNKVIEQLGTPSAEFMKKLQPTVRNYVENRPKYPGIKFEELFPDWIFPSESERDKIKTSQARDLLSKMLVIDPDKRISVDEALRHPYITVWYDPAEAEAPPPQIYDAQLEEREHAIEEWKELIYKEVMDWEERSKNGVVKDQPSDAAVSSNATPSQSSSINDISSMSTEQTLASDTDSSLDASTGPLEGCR
T6 sequence (Q13555 whole entry): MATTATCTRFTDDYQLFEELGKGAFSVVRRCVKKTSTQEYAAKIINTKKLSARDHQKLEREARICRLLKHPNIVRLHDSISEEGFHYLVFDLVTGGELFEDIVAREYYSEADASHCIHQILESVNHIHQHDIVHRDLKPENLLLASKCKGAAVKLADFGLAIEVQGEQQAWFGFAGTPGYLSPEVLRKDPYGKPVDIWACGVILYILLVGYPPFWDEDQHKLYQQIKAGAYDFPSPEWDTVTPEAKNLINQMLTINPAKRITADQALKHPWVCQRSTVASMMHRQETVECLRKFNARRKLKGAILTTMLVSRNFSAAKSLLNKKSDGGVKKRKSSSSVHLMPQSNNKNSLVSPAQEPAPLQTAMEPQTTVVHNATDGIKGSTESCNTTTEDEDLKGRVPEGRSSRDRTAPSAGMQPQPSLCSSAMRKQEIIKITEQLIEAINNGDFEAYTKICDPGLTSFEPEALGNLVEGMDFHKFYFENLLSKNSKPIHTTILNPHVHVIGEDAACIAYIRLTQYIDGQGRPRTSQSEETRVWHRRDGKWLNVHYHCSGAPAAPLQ
T4 sequence (P49840 whole entry): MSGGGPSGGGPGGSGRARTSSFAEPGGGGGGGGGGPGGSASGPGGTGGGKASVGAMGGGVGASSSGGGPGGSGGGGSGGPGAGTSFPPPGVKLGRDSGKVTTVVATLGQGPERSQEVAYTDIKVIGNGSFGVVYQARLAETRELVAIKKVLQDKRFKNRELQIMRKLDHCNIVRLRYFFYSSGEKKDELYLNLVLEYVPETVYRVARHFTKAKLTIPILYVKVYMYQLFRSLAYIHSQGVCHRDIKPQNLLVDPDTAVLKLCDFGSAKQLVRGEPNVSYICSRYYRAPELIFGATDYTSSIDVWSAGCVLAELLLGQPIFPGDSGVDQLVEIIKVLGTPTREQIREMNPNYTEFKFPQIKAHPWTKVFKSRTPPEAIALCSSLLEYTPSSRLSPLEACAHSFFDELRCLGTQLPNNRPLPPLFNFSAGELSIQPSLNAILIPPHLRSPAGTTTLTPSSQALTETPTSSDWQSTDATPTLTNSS

C1=C(c2nc(-c3cnn(C4CCNCC4)c3)cn3cc(-c4ccccc4)nc23)CCOC1 [YL-939]
remaining activity at 10 µM (PRKG2(h)): 97% | remaining activity at 10 µM (Abl(h)): 102% | remaining activity at 10 µM (JNK2α2(h)): 72% | remaining activity at 10 µM (ROCK-I(h)): 94% | remaining activity at 10 µM (GSK3α(h)): 119% | remaining activity at 10 µM (ATM(h)): 86% | remaining activity at 10 µM (Fyn(h)): 81% | remaining activity at 10 µM (EphB4(h)): 97% | remaining activity at 10 µM (p70S6K(h)): 61% | remaining activity at 10 µM (Itk(h)): 106% | remaining activity at 10 µM (BrSK2(h)): 101% | remaining activity at 10 µM (EGFR(L861Q)(h)): 61% | remaining activity at 10 µM (CaMKIIγ(h)): 86% | remaining activity at 10 µM (Src(1-530)(h)): 85% | remaining activity at 10 µM (Yes(h)): 90% | remaining activity at 10 µM (CK1γ3(h)): 102% | remaining activity at 10 µM (MYO3B(h)): 89% | remaining activity at 10 µM (Flt1(h)): 65% | remaining activity at 10 µM (VRK1(h)): 87% | remaining activity at 10 µM (mTOR(h)): 91% | remaining activity at 10 µM [1]: 99% | remaining activity at 10 µM (TLK2(h)): 88% | remaining activity at 10 µM (SLK(h)): 70%
